Assay results: PubChem BioAssay AID651717 (Broad Institute, 2012)

System: mESC Bmi1-luciferase reporter, firefly/renilla ratio, 24 h
Assay: Bmi1-luciferase reporter activators in mESC, dose response, esBAF inhibitor project, mouse embryonic stem cells, cherry-pick (AID 651717);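 also: luciferase knocked into Bmi1 locus with EF-1a renilla as cell number control; rising ratio signals esBAF inhibition which derepresses Bmi1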

SMILES	AC40 [µM]
CCCCSc1nnc(-c2c[nH]c3ccccc23)n1C	6.69
COc1ccc(-c2cc(C(=O)N3CCN(c4ccccc4)CC3)no2)cc1	5.94
COc1ccc(C(=O)Nc2ccc3nc(C)c(C)nc3c2)cc1	8.3
S=c1[nH]nc(SCc2ccccc2)c2[nH]cnc12	5.52
CC1(C)C=Cc2cc(-c3coc4cc(O)cc(O)c4c3=O)cc(O)c2O1	4.93
O=C(Cc1ccc(Cl)cc1)c1ccccc1	1.84
CCCCc1nc2cc(C(=O)N3CCN(c4nc(C)cnc4C)CC3)ccc2o1	2.43
COc1ccc2[nH]c(=O)c(-c3nnn(-c4ccccc4)n3)cc2c1	11.6
Nc1nc(SCc2ccccc2)cc(SCc2ccccc2)n1	4.44
Oc1cccc(/C=N/N2CCCCC2)c1O	3.47
NC(=O)c1sc2nc(-c3cccs3)ccc2c1N	2.75
Oc1ccc(/C=N/Nc2nc(-c3cccnc3)nc3ccccc23)c(O)c1	11.2
O=c1[nH]cnc2nc(-c3ccc(N(CCCl)CCCl)cc3)[nH]c12	0.965
Cn1c(COc2ccccc2)nc2ccccc21	2.59
O=C(Nc1nc2c(s1)CCc1ccccc1-2)c1cccs1	0.9
CO[C@H]1CN(C)C(=O)c2cc(NC(=O)NC(C)C)ccc2OC[C@H](C)N(Cc2ccc(-c3ccccn3)cc2)C[C@@H]1C	0.871
Cc1ccc(-c2ccc(CCC(=O)O)n2-c2cccc(O)c2)cc1	10.1
Cc1cccc(Nc2nc(-c3sc(C)nc3C)cs2)c1	2.71
O=P(O)(O)c1ccccc1OCCOCCOCCOCCOc1ccccc1P(=O)(O)O	8.04
Cc1cccc(N2C(=O)CC(N(O)c3ccccc3)C2=O)c1 (stereo not drawn)	28.4
Cc1cc(C(=O)Cn2cnc3ccccc3c2=O)c(C)n1C1CC1	2.92
COc1ccc(OCc2cc(C(=O)N3C[C@H]4CC[C@H]3C4)no2)c(Cl)c1	9.24
CC(=O)N1CC2(CC(c3ccccc3F)=NO2)CN1c1ccc(Cl)cc1 (stereo not drawn)	19.9
O=C(CC1CCCC1)Nc1ccc(Br)cc1	16
CC(C)c1ccc(NC(=O)c2ccc3snnc3c2)cc1	3.23

SMILES	AC40 [µM]
O=C(Nc1ccccc1)c1cc(C2CCCN(C(=O)CCc3ccccc3)C2)on1 (stereo not drawn)	5.03
O=C(COC(=O)c1cccc(S(=O)(=O)N2CCOCC2)c1)Nc1nc(-c2ccccc2Cl)cs1	16.2
O=C(Nc1cccc2ccccc12)c1cnccn1	6.43
O=C(Nc1cccnc1Cl)c1cc(-c2ccccc2O)on1	1.09
CC(=O)NCCNc1nc2cc(-c3ccc(C)cc3)sc2c(=O)n1C	14.3
COc1ccc(Cc2c(-c3ccccc3)nc3ccc(Br)cn23)c(C)c1	8.9
COc1ccc(-n2nc(C(=O)NCC(=O)N3CCN(c4ccccc4)CC3)c3ccccc3c2=O)c(OC)c1	3.37
O=C1CCN(Cc2ccccc2)CCN1CCSc1ccccc1	3.08
COc1cccc(N2CCN(C(=O)c3ccc4nc(N5CCCCC5)sc4c3)CC2)c1	5.88
Clc1ccccc1C=NNc1ccccn1	2.27
ClCCn1cnc2c(SCc3ccccc3)ncnc21	2.74
COc1ccc(C(=O)NCCS(=O)(=O)NCCc2ccccc2)cc1	0.726
COc1cc(C(=O)Oc2ccccc2/C=N/NC(=O)c2ccc(Cl)cc2Cl)cc(OC)c1OC	1.1
O=C(NNC(=O)c1ccccc1OCc1ccccc1)c1ccccc1F	11.5
Cc1ccc(-n2nnc(-c3cccnc3)n2)cc1	0.926
Cc1cc(C)c2c(N)c(C(=O)Nc3ccccc3Br)sc2n1	2.16
CCn1c(COc2ccccc2)nc2ccccc21	22
COc1cccc(CN(C)C(=O)c2ccc(COc3ccc(Cl)cc3)cc2)c1OC	5.66
Clc1ccc(OCc2nc(-c3ccncc3)no2)cc1	10.8
CCCN1C(=O)c2ccc(C(=O)Nc3ccc4c(c3)OCO4)cc2C1=O	9.64
CCC(=O)c1ccc(N2CCCC2)c(F)c1	6.47
Cc1cccc(Oc2ccc(Cl)cc2N)c1	5.77
Cc1csc(Nc2nc(N)c(C(=O)Nc3ccccc3)o2)n1	3.69
C(=N\N1CCN(c2ccccc2)CC1)/c1ccccc1	4.79
Cn1c(=NC(=O)C2CC2)sc2cc(F)cc(F)c21	16.6

SMILES	AC40 [µM]
Cc1ccc(C)c(N2CCN(C(=O)CCc3nc(-c4ccccc4C(F)(F)F)no3)CC2)c1	4.63
CCC(=O)Nc1nc(-c2ccc3c(c2)CC(C)N3S(C)(=O)=O)cs1 (stereo not drawn)	7.5
COc1ccc(/C=N/OCc2ccccc2C#N)c(OC)c1	6.27
Cc1cc2oc(=O)cc(CN3CCC(C)CC3)c2c(C)c1Cl	4.55
c1ccc(CCNc2ccc3c(c2)Cc2ccccc2-3)nc1	1.53
O=C(O)c1cncc(C#CCC2CCCCC2)c1	15.6
CNc1cncc(-c2cccc(OC)c2F)n1	1.24
CCc1nc(SCc2ccc(Br)cc2)n[nH]1	2.5
O=C(NCCCc1ccccc1)c1ccccc1O	10.7
COc1ccc(Cc2nc(-c3cccc(C)c3)no2)cc1	3.63
ON=C(CCc1ccccc1)c1ccccc1	0.977
O=C(c1ccc(Cl)cc1)c1cnc(-c2ccc(Cl)cc2)s1	2.84
c1ccc(Cn2c(-c3cncs3)nc3ccccc32)cc1	11.8
O=C(CCCc1ccccn1)c1ccc(-c2ccccc2)cc1	4.03
O=C(Cn1c(/C=C/c2ccccc2)nc2ccccc21)Nc1ccc(F)cc1	2.78
Cc1ccc(O)c(CNc2ccccn2)c1	16.7
COc1cccc(OCc2cc(C(=O)N(C)Cc3nc4ccccc4[nH]3)no2)c1	2.78
O=C(C[C@@H]1CC[C@@H]2[C@H](COC[C@H](O)CN2C(=O)Nc2ccc(Cl)cc2)O1)NCC1CCCCC1	2.62
CCc1c(C(=O)OCc2ccccc2)[nH]c(C)c1C	2.03
COc1ccc(NC(=O)c2cc(-c3cccs3)on2)cc1	3.06
COc1ccc(C2=Nc3ccccc3NC(=O)C2N(C(=O)c2cc3ccccc3[nH]2)c2ccccc2)cc1 (stereo not drawn)	1.44
COc1ccccc1NC(=O)Cn1nnc(-c2ccccc2NC(=O)c2cc3ccccc3oc2=O)n1	4.5
Cc1ccc(NC(=O)c2ccnc(C(C)(C)C)c2)cc1	1.95
CCn1ccnc1CN(C)C(=O)c1cc(COc2ccccc2SC)on1	8.01
CC(=O)N(C)c1nc(-c2ccc(Cl)cc2)cs1	5.63

SMILES	AC40 [µM]
O=C(NC1CCCCC1)c1n[nH]c2c1CC(c1ccccc1)CC2 (stereo not drawn)	0.996
CCOc1ccc2nc(NC(=O)CSc3nnc(-c4ccncc4)n3CC3CCCO3)sc2c1 (stereo not drawn)	7.34
Cc1ccc(C)c(N2CCN(C(=O)CCc3nc(-c4cccc(C(F)(F)F)c4)no3)CC2)c1	7.5
O=C(Nc1ccccc1Cl)c1cc(=O)c2ccccc2o1	0.468
COc1ccccc1C(=O)NCCC(=O)NC1CCC(C)CC1 (stereo not drawn)	4.6
CCC(C)NC(=O)c1cc(-c2ccccc2O)on1 (stereo not drawn)	11.1
Cc1cccc(NC(=O)c2c(O)c3ccccc3[nH]c2=O)c1	0.371
c1ccc(Nc2ccc3ccccc3c2)cc1	3.83
COc1ccc(Cl)cc1C(=O)Nc1ccc(Br)c(C)n1	6.83
O=C(CCc1ccccc1)Nc1ccc(F)cc1F	7.22
CCn1c2ccccc2c2cc(NC(=O)N3CCCCC3)ccc21	1.19
Cc1ccc(NC(=O)C2CCN(S(=O)(=O)c3ccc4ccccc4c3)CC2)nc1	6.53
FC(F)(F)c1ccccc1Cc1c(-c2cccc(Br)c2)nc2c3ccccc3ccn12	9.57
O=C(Nc1nccs1)C(=O)c1c[nH]c2ccccc12	0.751
Cc1cccc(-c2nc(C#N)c(N3CCCCCC3)o2)c1	16.7
COC(=O)c1c(-c2ccc(Br)cc2)noc1N	14.7
Cc1nc(-c2ccccc2)sc1-c1nnc(C2CC2)o1	4.24
Cc1nc(NCc2ccccc2)sc1C(=O)Nc1ccccc1	8.44
CC(=O)Nc1ccc(NC(=O)c2cccc(-c3cc4ccccc4oc3=O)c2)cc1	9.75
Cc1ccnc(NC(=O)c2ccc(Cl)c(S(=O)(=O)N3CCCCC3)c2)c1	11.7
Cc1cccc(NC(=O)c2cc(-c3cc(Cl)ccc3O)n[nH]2)c1	2.08
O=C(/C=N/NC(=O)c1ccc(Cl)cc1Cl)c1ccccc1	1.41
Cc1ccc(NC(=O)C(=O)Nc2ccc(C)cn2)nc1	0.497
c1ccc(-c2nc3c(ccc4ccccc43)[nH]2)nc1	0.96
COc1ccc(-c2csc(C(O)c3ccc(F)cc3)n2)cc1 (stereo not drawn)	1.54

SMILES	AC40 [µM]
O=C1NC(=Nc2ccccc2)S/C1=C\c1cccn1-c1ccccc1	2.43
CCCn1cnc2cc(NCc3ccccc3O)ccc21	17.2
COc1cccc2sc(NC(=O)c3ccc(Br)s3)nc12	1.85
COc1ccc(NC(=O)CCC(=O)Nc2ccc3nc(N4CCOCC4)cc(C)c3c2)c(OC)c1	6.04
COc1ccccc1C(=O)NCC(=O)Nc1ccc2c(c1)CCC2	3.24
COc1ccc(-c2cc(C(=O)N3CCN(c4ccccc4O)CC3)c3ccccc3n2)cc1	3.16
O=C(NN=Cc1ccc2c(c1)CCC2)c1ccccc1O	2.45
CCCOc1ccc(NC(=O)C2CC(=O)N/C(=N/N=C(C)/C=C/c3ccc(N(C)C)cc3)S2)cc1 (stereo not drawn)	6
CSc1ccccc1NC(=O)c1cc(C(C)C)on1	3.11
COc1cc(Cl)ccc1OCc1cc(C(=O)N(C)Cc2cccc3cnccc23)no1	7.79
CCCc1cc(C(=O)Nc2cc(Br)ccc2O)no1	8.53
CC(NC(=O)c1cc(COc2cccc(C(F)(F)F)c2)on1)c1nccs1 (stereo not drawn)	6.45
NC(=O)C1CCN(c2nc(-c3cccc(N)c3)cs2)CC1	1.35
COC(=O)c1ccc2[nH]c(C3(O)CCCCC3)c(C)c2c1	5.55
Fc1ccc2nc(-c3ccccc3)ccc2c1	1.14
CCOC(=O)C1=C(CSc2nc(-c3ccccc3)ccc2C#N)OC(N)=C(C#N)C1c1ccccc1 (stereo not drawn)	12.4
O=C(NC1CCCCCCC1)c1c(O)c2ccccc2[nH]c1=O	2.19
Cc1ccc(NC(=O)c2ccc3c(c2)CCN3S(C)(=O)=O)cc1	10.5
O=C(CN1CCCCCC1)Nc1ccc(Br)cc1Br	8.51
CCN(C(=O)c1cccs1)c1nnc(-c2ccncc2)s1	1.05
COc1nc(Nc2ccc(C(C)C)cc2)nc(OC)n1	10.8
CN(C)c1ccc(CNc2nc3cc(-c4ccc(F)cc4)sc3c(=O)n2C)cc1	2.12
CCc1sc(C(=O)N2CCN(CC(=O)Nc3cccc(F)c3)CC2)cc1C	3.04
